The values below are quoted from earlier work in patent publication US10822301B2, “3-carbon substituted 4-aminocyclopent-1-ene-1-carboxylic acid compounds as inhibitors of gamma-aminobutyric acid (GABA) aminotransferase” (Northwestern University, priority 2018, dated 2020).

Molecules are shown by their SMILES.

Data set [1] deals with cocaine addiction in humans. The conditions noted are these: 9-week double-blind trial.
The subject of the next data set is epilepsy patients. As to conditions: long-term administration, share of epilepsy patients.

Consider `C=CC(N)CCC(=O)O` (centres unmarked) [vigabatrin], for which the patients achieving abstinence result in data set [1] is listed as “up to 28%”. Moreover, the “permanent vision loss (damage of the retinal nerve fiber layer)” value in the data set on epilepsy patients is given as 25-40%.
